Like-named read-outs stand apart in the source and are kept apart here.
Assays:
[1] = test system: thyroid hormone receptor (endogenous TRα and TRβ); experiment: cells; design: species or system GH3-TRE-Luc (rat pituitary); GH3-TRE-Luc luciferase reporter, antagonist mode against 1 nM T3, loss of signal, qHTS; settings: 24 h, antagonist mode, 1 nM T3, read-out: AC50 (uM) modified / 1000
[2] = test system: thyroid hormone receptor (endogenous TRα and TRβ); experiment: cells; design: species or system GH3-TRE-Luc (rat pituitary); GH3-TRE-Luc luciferase reporter transactivation, agonist mode, qHTS; RXR ligands can also activate indirectly; settings: 24 h, read-out: TR_LUC_GH3_Agonist_AC50 (uM)
[3] = in vitro; design: species or system GH3-TRE-Luc (rat pituitary); CellTiter-Fluor viability run in parallel with antagonist mode (1 nM T3), loss of viability; settings: rat, gh3-tre-luc cells, 1 nM T3 present
[4] = in vitro; settings: rat
[5] = test system: thyroid hormone receptor (endogenous TRα and TRβ); experiment: GH3-TRE-Ag-Followup confirmation (TOX21_TR_LUC_GH3_Agonist_Followup, aeid 2226); format: cell-based, rat; settings: for AC50: read-out: GH3-TRE-Ag-Followup AC50; for GH3-TRE-Ag-Followup hitc: hit call from tcpl
[6] = Global cytotoxicity: eighteen Tox21 cell viability assays; format: cell-based; settings: median over 18 Tox21 cell viability assays (Judson et al. 2016, invitrodb_v2); read-out: Global cytotoxicity AC50 median
[7] = test system: thyroid hormone receptor (TR); experiment: Classification of TR actives across characterization assays (TR-Ag / RXR-Ag; TR model binary); design: key to Categorization Code: FP, false positive; settings: for Categorization Code: TR agonist characterization
Method in brief: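 Pharmaceuticals excluded; actives called from GH3-TRE qHTS (agonist, antagonist, viability) on 8,305 chemicals. Confirmation of 84 selected chemicals used GH3-TRE-Ag, mammalian one-hybrid TRβ and RXRα UAS-bla HEK 293T specificity screens, parental HEK293T viability, and two TR:coactivator recruitment assays.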

[8] = in vitro; settings: rat, gh3-tre-luc cells, AC50 (uM) modified / 1000
[9] = test system: Tox21 cell viability assays (different cell types); experiment: Global cytotoxicity: eighteen Tox21 cell viability assays; format: cell-based
[10] = target: T1, human TRβ ligand-binding domain (Homo sapiens, UniProt P10828); experiment: TRb-bla agonist mammalian one-hybrid beta-lactamase assay (TOX21_TRB_BLA_Agonist_Followup_ratio, aeid 2236); format: cell-based; design: host or cells: GeneBLAzer UAS-bla HEK 293T; settings: for AC50 / TRb-bla hitc: agonist; for AC50: read-out: TRb-bla AC50; for TRb-bla hitc: hit call from tcpl; for Emax: read-out: EMax (% of Control) trb-bla-agonist-followup-1
T1 sequence (P10828 217-461 limits assumed): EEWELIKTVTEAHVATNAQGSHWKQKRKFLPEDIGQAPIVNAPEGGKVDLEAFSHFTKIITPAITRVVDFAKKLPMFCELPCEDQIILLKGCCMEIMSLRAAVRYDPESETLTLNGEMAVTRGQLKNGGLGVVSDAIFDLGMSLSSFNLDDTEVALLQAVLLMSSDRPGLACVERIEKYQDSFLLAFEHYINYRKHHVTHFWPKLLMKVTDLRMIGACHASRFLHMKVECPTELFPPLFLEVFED

[11] = test system: GH3-TRE-Luc cell line; experiment: GH3-TRE-Via cell viability, CellTiter-Fluor (TOX21_TR_LUC_GH3_Antagonist_viability, aeid 805); settings: for AC50: Rattus norvegicus, read-out: TR_LUC_GH3_Antagonist_viability AC50 (uM)
[12] = test system: thyroid hormone receptor (endogenous TRα and TRβ); experiment: GH3-TRE-Ag primary qHTS, luciferase reporter, agonist mode (TOX21_TR_LUC_GH3_Agonist, aeid 803); format: cell-based, rat; settings: for GH3-TRE-Ag AC50 hitc: hit call from tcpl
[13] = target: T2, human RXRα (Homo sapiens, UniProt P19793); experiment: RXRa-bla-Ag mammalian one-hybrid beta-lactamase assay (TOX21_TR_RXR_BLA_Agonist_Followup_ratio, aeid 2253); format: cell-based; settings: for tr-followup-rxr-bla-agonist-1 hitc: hit call from tcpl; for Emax: read-out: EMax (% of Control) tr-followup-rxr-bla-agonist-1; for AC50: read-out: tr-followup-rxr-bla-agonist-1 AC50
T2 construct: host or cells: GeneBLAzer UAS-bla HEK 293T
T2 sequence (P19793 227-458 limits assumed): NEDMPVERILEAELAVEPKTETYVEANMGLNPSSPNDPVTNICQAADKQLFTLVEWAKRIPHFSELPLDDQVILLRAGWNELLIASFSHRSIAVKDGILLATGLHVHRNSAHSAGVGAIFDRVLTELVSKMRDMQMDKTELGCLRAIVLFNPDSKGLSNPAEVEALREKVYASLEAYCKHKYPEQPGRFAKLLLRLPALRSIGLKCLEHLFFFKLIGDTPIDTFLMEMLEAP

[14] = target: T1, human TRβ ligand-binding domain; experiment: TRb-coa LanthaScreen TR-FRET coactivator (SRC-2 peptide) recruitment, agonist (TOX21_TRB_COA_Agonist_Followup_ratio, aeid 2244); format: biochemical; design: host or cells: GeneBLAzer UAS-bla HEK 293T; settings: for AC50 / TRb-coa hitc: agonist; for AC50: read-out: TRb-coa AC50; for TRb-coa hitc: hit call from tcpl; for Emax: read-out: EMax (% of Control) trb-coa-agonist-followup-1
[15] = target: T3, TRα ligand-binding domain (Homo sapiens, UniProt P10827); experiment: TRa-coa LanthaScreen TR-FRET coactivator (SRC-2 peptide) recruitment, agonist (TOX21_TRA_COA_Agonist_Followup_ratio, aeid 2230); format: biochemical; settings: for AC50 / TRa-coa hitc: agonist; for AC50: read-out: TRa-coa AC50; for TRa-coa hitc: hit call from tcpl; for Emax: read-out: EMax (% of Control) tra-coa-agonist-followup-1
T3 construct: the receptor LBDs expressed as glutathione S-transferase (GST) fusion proteins; purchased
T3 sequence (P10827 163-410 isoform P10827-2 limits assumed, other chains not shown): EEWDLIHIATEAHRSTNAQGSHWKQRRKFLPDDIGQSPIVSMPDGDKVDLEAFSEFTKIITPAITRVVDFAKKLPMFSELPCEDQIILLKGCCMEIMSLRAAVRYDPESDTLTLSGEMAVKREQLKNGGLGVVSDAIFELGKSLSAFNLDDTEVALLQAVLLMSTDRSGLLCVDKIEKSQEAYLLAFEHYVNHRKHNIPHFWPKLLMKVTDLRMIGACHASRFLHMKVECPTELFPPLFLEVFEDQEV

[16] = test system: GH3-TRE-Luc cell line; settings: rat, 24 h

## ClCc1ccccc1 [Benzyl chloride]
[1]; Tox21_110001=Tox21_200266
  AC50: > 90 µM
[2]
  AC50: > 90 µM
[3]; AC50 (uM) modified / 1000, Tox21_110001=Tox21_200266, viability
  CC50 at 24 h: > 90 µM

## CCOP(=O)(OCC)Oc1nc(Cl)c(Cl)cc1Cl [Chlorpyrifos oxon]
[2]
  AC50: > 90 µM
[3]; AC50 (uM) modified / 1000, Tox21_110001=Tox21_301063, viability
  CC50 at 24 h: 60.1 µM

## C1=CCC=C1 [1,3-Cyclopentadiene]
[1]; Tox21_110001=Tox21_302134
  AC50: > 90 µM
[2]
  AC50: > 90 µM
[3]; AC50 (uM) modified / 1000, Tox21_110001=Tox21_302134, viability
  CC50 at 24 h: > 90 µM

## [CH3][Sn]([CH3])([Cl])[Cl] [Dimethyltin dichloride]
[3]; AC50 (uM) modified / 1000, Tox21_110001=Tox21_201249, viability
  CC50 at 24 h: 79.3 µM

## [CH3][Sn]([Cl])([Cl])[Cl] [Trichloromethylstannane]
[3]; AC50 (uM) modified / 1000, Tox21_110001=Tox21_202322, viability
  CC50 at 24 h: > 90 µM

## C[C@]12CC[C@@H]3c4ccc(OC(=O)N(CCCl)CCCl)cc4CC[C@H]3[C@@H]1CC[C@@H]2OP(=O)(O)O [Estramustine phosphate sodium]
[1]; Tox21_110001=Tox21_113375
  AC50: > 50 µM

## CCOP(=O)(CN(CCO)CCO)OCC [Diethyl((diethanolamino)methyl)phosphonate]
[1]; Tox21_110001=Tox21_301894
  AC50: > 90 µM
[2]
  AC50: > 90 µM
[3]; AC50 (uM) modified / 1000, Tox21_110001=Tox21_301894, viability
  CC50 at 24 h: > 90 µM

## CCS(=O)(=O)CCSP(=O)(OC)OC [Demeton-S-methylsulphon]
[1]; Tox21_110001=Tox21_301575
  AC50: > 90 µM
[2]
  AC50: > 90 µM
[3]; AC50 (uM) modified / 1000, Tox21_110001=Tox21_301575, viability
  CC50 at 24 h: > 90 µM

## CCOP(=S)(OCC)SCSc1cc(Cl)ccc1Cl [Phenkapton]
[1]; Tox21_110001=Tox21_301741
  AC50: > 90 µM
[2]
  AC50: > 90 µM
[3]; AC50 (uM) modified / 1000, Tox21_110001=Tox21_301741, viability
  CC50 at 24 h: > 90 µM

## N[C@@H](Cc1ccc(Oc2cc(I)c(O)c(I)c2)c(I)c1)C(=O)O [3,3ʹ,5ʹ-Triiodo-L-thyronine]
[4]
  AC50: > 92 µM
[5]; confirmation, agonist mode
  AC50: 0.537 µM
[2]
  AC50: 0.218 µM
[6]
  AC50: > 92 µM
[7]; TR-Ag = TR agonist, RXR-Ag = RXR agonist
  Classification: TR-Ag
[8]
  CC50 at 24 h: > 50 µM

## CNC(=O)ON=C(CSC)C(C)(C)C [Thiofanox]
[5]
  EMax (% of Control) gh3-tre-agonist-followup-1_agonist: 9.5 % of Control
  GH3-TRE-Ag-Followup hitc: 0
  AC50: > 92 µM
[2]
  AC50: 21 µM
[9]; # active of 18 total Tox21 viability assays
  GLOBAL CYTOTOXICITY cytotox.number_Active: 0
[9]; median over Tox21 viability assays
  GLOBAL CYTOTOXICITY cytotox.median: >92
[7]
  Categorization Code: FP
[10]
  AC50: > 92 µM
  TRb-bla hitc: 0
  Emax: 31.7%
[11]
  AC50: > 92 µM
[11]; hit call from tcpl
  TR_LUC_GH3_Antagonist_viability hitc: 0
[12]
  EMax (% of Control) gh3-tre-agonist: 22.7 % of Control
  GH3-TRE-Ag AC50 hitc: 1
[13]
  tr-followup-rxr-bla-agonist-1 hitc: 0
  Emax: 3%
  AC50: > 92 µM
[14]
  AC50: > 92 µM
  TRb-coa hitc: 0
  Emax: -0.165%
[15]
  AC50: > 92 µM
  TRa-coa hitc: 0
  Emax: -0.2%

## CCOP(=S)(Oc1ccc([N+](=O)[O-])cc1)c1ccccc1 (stereo not drawn) [EPN]
[1]; Tox21_110001=Tox21_300424
  AC50: > 90 µM
[2]
  AC50: > 90 µM
[3]; AC50 (uM) modified / 1000, Tox21_110001=Tox21_300424, viability
  CC50 at 24 h: > 90 µM

## c1csc(-c2ccc(-c3cccs3)s2)c1 [alpha-Terthiophene]
[5]
  EMax (% of Control) gh3-tre-agonist-followup-1_agonist: 7.5 % of Control
  GH3-TRE-Ag-Followup hitc: 0
  AC50: > 92 µM
[2]
  AC50: 80.3 µM
[9]
  GLOBAL CYTOTOXICITY cytotox.median: >92
  GLOBAL CYTOTOXICITY cytotox.number_Active: 0
[7]
  Categorization Code: FP
[10]
  AC50: > 92 µM
  TRb-bla hitc: 0
  Emax: 25.8%
[11]
  AC50: > 92 µM
[12]
  EMax (% of Control) gh3-tre-agonist: 20.8 % of Control
  GH3-TRE-Ag AC50 hitc: 1
[13]
  tr-followup-rxr-bla-agonist-1 hitc: 1
  Emax: 65.3%
  AC50: 0.728 µM
[16]
  TR_LUC_GH3_Antagonist_viability hitc: 0
[14]
  AC50: > 92 µM
  TRb-coa hitc: 0
  Emax: -0.0945%
[15]
  AC50: > 92 µM
  TRa-coa hitc: 0
  Emax: -0.547%

## CCOP(=S)(OCC)SCCl [Chlormephos]
[1]; Tox21_110001=Tox21_300825
  AC50: > 90 µM
[2]
  AC50: > 90 µM
[3]; AC50 (uM) modified / 1000, Tox21_110001=Tox21_300825, viability
  CC50 at 24 h: > 90 µM

— article PMC6792352, “Limited Chemical Structural Diversity Found to Modulate Thyroid Hormone Receptor in the Tox21 Chemical Library” (Environmental Health Perspectives, 2019)
